Measurements: article PMC12951562, “SH2scan: Mapping SH2 Domain-Ligand Binding Selectivity for Inhibitors and Degraders” (Journal of Medicinal Chemistry, 2026)
Where two headings read alike, the source gives them in different places. Non-standard residues stand in square brackets, D forms with d. Residues, ends and D or L forms follow the SMILES beside them. pY = N[C@@H](Cc1ccc(OP(=O)(O)O)cc1)C(=O)O

Legend:
Assay in all cases: biochemical
Assay type in all cases: binding
SOCS6 = target: T1, SOCS6 (Homo sapiens, UniProt O14544); conditions: for remaining activity at 10 µM: read-out: percent of DMSO vehicle control
T1 construct: made in house; host or cells: HEK293 (transient transfection), unpurified extract
T1 sequence (O14544 1-535): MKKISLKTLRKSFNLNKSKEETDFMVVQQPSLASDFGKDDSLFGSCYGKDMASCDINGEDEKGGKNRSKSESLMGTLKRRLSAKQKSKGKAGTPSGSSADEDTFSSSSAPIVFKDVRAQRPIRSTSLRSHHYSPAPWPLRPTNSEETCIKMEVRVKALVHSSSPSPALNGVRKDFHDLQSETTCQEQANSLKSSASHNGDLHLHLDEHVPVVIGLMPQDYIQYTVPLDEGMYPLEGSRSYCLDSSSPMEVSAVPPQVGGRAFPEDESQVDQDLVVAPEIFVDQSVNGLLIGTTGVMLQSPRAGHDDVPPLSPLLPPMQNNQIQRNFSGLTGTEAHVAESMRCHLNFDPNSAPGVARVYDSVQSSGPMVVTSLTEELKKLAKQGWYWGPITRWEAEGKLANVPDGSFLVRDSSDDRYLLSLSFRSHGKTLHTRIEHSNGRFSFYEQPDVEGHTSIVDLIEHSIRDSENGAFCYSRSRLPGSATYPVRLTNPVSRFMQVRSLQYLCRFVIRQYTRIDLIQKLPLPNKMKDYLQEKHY

PIK3R2(SH2dom.N-term.) = target: T2, PIK3R2(SH2dom.N-term.) (Homo sapiens, UniProt O00459); conditions: for remaining activity at 10 µM: read-out: percent of DMSO vehicle control
T2 construct: SH2dom.N-term. denotes SH2 domain closest to N-terminus of protein; made in house; host or cells: HEK293 (transient transfection, unpurified extract)
T2 sequence (O00459 330-425 limits assumed): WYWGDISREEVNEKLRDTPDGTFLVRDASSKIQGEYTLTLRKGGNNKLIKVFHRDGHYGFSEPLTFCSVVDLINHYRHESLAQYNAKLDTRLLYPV

MIST = target: T3, MIST (Homo sapiens, UniProt Q7Z7G1)
T3 construct: the DNA-tagged SH2 domain concentrations used in this study were <0.1 nM; made in house; host or cells: HEK293 (transient transfection, unpurified extract)
T3 sequence (Q7Z7G1 309-419 limits assumed): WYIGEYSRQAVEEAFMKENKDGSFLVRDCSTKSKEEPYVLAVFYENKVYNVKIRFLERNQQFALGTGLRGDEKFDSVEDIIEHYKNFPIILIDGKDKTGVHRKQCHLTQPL

CRKL = target: T4, CRKL (Homo sapiens, UniProt P46109)
T4 construct: the DNA-tagged SH2 domain concentrations used in this study were <0.1 nM; made in house; host or cells: HEK293 (transient transfection; unpurified extract)
T4 sequence (P46109 14-102 limits assumed): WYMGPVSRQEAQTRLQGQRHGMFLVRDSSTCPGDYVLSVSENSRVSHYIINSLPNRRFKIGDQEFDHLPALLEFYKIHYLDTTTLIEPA

ABL2 = target: T5, ABL2 (Homo sapiens, UniProt P42684)
T5 construct: the DNA-tagged SH2 domain concentrations used in this study were <0.1 nM; made in house; host or cells: HEK293 (transient transfection; unpurified extract)
T5 sequence (P42684 173-263 limits assumed): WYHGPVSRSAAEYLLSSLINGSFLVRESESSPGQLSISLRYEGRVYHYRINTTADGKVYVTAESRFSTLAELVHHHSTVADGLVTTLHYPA

PTPN6(SH2dom.C-term.) = target: T6, PTPN6(SH2dom.C-term.) (Homo sapiens, UniProt P29350); conditions: for remaining activity at 10 µM: read-out: percent of DMSO vehicle control
T6 construct: SH2dom.C-term. denotes SH2 domain closest to C-terminus of protein; made in house; host or cells: HEK293 (transient transfection, unpurified extract)
T6 sequence (P29350 110-213 limits assumed): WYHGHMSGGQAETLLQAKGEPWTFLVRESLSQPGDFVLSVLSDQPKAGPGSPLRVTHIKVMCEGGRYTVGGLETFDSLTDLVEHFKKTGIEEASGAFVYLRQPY

FES = target: T7, FES (Homo sapiens, UniProt P07332); conditions: for remaining activity at 10 µM: read-out: percent of DMSO vehicle control
T7 construct: the DNA-tagged SH2 domain concentrations used in this study were <0.1 nM; made in house; host or cells: HEK293 (transient transfection; unpurified extract)
T7 sequence (P07332 460-549 limits assumed): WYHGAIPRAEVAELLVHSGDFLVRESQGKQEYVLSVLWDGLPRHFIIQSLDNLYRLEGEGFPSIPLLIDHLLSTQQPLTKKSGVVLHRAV

APS (SH2B2) = target: T8, APS (SH2B2) (Homo sapiens, UniProt O14492)
T8 construct: the DNA-tagged SH2 domain concentrations used in this study were <0.1 nM; made in house; host or cells: HEK293 (transient transfection; unpurified extract)
T8 sequence (O14492 417-515 limits assumed): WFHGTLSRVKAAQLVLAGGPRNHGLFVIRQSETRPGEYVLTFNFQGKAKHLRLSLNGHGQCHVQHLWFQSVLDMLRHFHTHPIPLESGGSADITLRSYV

SOCS2 = target: T9, SOCS2 (Homo sapiens, UniProt O14508); conditions: for remaining activity at 10 µM: read-out: percent of DMSO vehicle control
T9 construct: made in house; host or cells: HEK293 (transient transfection), unpurified extract
T9 sequence (O14508 1-198): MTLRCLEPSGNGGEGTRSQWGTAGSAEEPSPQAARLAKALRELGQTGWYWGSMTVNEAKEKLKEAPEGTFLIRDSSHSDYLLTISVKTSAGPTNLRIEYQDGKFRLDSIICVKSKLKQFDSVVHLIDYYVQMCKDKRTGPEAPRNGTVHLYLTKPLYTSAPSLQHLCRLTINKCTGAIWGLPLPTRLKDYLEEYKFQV

NCK1 = target: T10, NCK1 (Homo sapiens, UniProt P16333); conditions: for remaining activity at 10 µM: read-out: percent of DMSO vehicle control
T10 construct: the DNA-tagged SH2 domain concentrations used in this study were <0.1 nM; made in house; host or cells: HEK293 (transient transfection, unpurified extract)

CBLC = target: T11, CBLC (Homo sapiens, UniProt Q9ULV8)
T11 construct: the DNA-tagged SH2 domain concentrations used in this study were <0.1 nM; made in house; host or cells: HEK293 (transient transfection; unpurified extract)
T11 sequence (Q9ULV8 219-321 limits assumed): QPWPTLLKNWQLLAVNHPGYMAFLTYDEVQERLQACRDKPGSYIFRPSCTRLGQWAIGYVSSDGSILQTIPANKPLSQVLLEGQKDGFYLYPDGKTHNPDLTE

STAT4 = target: T12, STAT4 (Homo sapiens, UniProt Q14765); conditions: for percent of DMSO vehicle control: primary screen, 10 μM; for Kd: dose-response
T12 construct: made in house; host or cells: HEK293 (transient transfection), unpurified extract
T12 sequence (Q14765 1-748): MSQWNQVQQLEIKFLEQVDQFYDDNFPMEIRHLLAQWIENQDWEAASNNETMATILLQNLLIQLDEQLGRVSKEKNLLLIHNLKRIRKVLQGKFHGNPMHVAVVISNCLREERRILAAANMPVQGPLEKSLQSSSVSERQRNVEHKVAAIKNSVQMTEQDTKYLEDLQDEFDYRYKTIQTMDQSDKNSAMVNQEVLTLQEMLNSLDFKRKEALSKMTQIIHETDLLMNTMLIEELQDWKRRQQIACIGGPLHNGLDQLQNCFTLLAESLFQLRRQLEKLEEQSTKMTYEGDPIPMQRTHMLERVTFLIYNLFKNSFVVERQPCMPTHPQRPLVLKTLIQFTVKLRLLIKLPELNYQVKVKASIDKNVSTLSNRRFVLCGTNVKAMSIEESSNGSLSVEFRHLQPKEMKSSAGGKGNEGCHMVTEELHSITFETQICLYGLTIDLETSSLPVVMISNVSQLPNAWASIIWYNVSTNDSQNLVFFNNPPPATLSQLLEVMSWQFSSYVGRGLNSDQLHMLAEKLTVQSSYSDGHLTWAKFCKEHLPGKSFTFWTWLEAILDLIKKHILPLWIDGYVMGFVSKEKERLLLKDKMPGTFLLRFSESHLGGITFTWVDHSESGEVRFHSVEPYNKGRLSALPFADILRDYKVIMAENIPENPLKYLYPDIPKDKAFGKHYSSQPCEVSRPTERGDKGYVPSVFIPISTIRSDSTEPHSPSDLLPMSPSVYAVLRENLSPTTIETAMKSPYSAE

HSH2D = target: T13, HSH2D (Homo sapiens, UniProt Q96JZ2)
T13 construct: the DNA-tagged SH2 domain concentrations used in this study were <0.1 nM; made in house; host or cells: HEK293 (transient transfection, unpurified extract)
T13 sequence (Q96JZ2 34-125 limits assumed): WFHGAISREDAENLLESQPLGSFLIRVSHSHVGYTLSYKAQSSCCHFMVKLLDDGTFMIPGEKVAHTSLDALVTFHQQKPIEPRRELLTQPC

[1] = primary screen, 10 μM, read-out: percent of DMSO vehicle control
[2] = read-out: percent of DMSO vehicle control

Compound: O=C(COc1ccc2cc(C(=O)Nc3ccccc3)ccc2c1)NCc1ccc(OP(=O)(O)O)c(OP(=O)(O)O)c1 [Stafib-1]
- remaining activity at 10 µM (SOCS6; primary screen, 10 μM): 96.9 ± 12%
- remaining activity at 10 µM (PIK3R2(SH2dom.N-term.); primary screen, 10 μM): 97.2 ± 21.5%
- remaining activity at 10 µM (MIST; [1]): 96.8 ± 9.3%
- remaining activity at 10 µM (CRKL; [1]): 120%
- remaining activity at 10 µM (ABL2; [1]): 106%
- remaining activity at 10 µM (PTPN6(SH2dom.C-term.); primary screen, 10 μM): 179%
- remaining activity at 10 µM (FES; primary screen, 10 μM): 116%
- remaining activity at 10 µM (APS (SH2B2); [1]): 64.6 ± 31.3%
- remaining activity at 10 µM (SOCS2; primary screen, 10 μM): 47.9 ± 29%
- remaining activity at 10 µM (NCK1; primary screen, 10 μM): 53.7 ± 39.3%
- remaining activity at 10 µM (CBLC; [1]): 100%
- percent of DMSO vehicle control (STAT4): 57.6±15.3%
- KD (HSH2D; dose-response): No Hit
- remaining activity at 10 µM (HSH2D; [1]): 27.1%

Compound: CC[C@H](C)[C@H](NC(=O)[C@H](CCC(=O)O)NC(=O)[C@H](CCC(=O)O)NC(=O)[C@H](Cc1ccc(OP(=O)(O)O)cc1)NC(C)=O)C(=O)N[C@@H](CCC(=O)O)C(N)=O [Ac-pYEEIE-NH2] (Ac-[pY]EEIE-NH2)
- percent of DMSO vehicle control (SOCS6; primary screen, 10 μM): 95.6±6.2%
- percent of DMSO vehicle control (PIK3R2(SH2dom.N-term.); primary screen, 10 μM): 74.1%
- percent of DMSO vehicle control (MIST; primary screen, 10 μM): 55.1%
- percent of DMSO vehicle control (CRKL; primary screen, 10 μM): 131.3%
- percent of DMSO vehicle control (ABL2; primary screen, 10 μM): 110.7%
- percent of DMSO vehicle control (PTPN6(SH2dom.C-term.); primary screen, 10 μM): 110.0%
- Kd (FES): 4200 nM
- percent of DMSO vehicle control (FES; primary screen, 10 μM): 24.1±2.4%
- percent of DMSO vehicle control (APS (SH2B2); primary screen, 10 μM): 121.8%
- percent of DMSO vehicle control (SOCS2; primary screen, 10 μM): 104.8%
- percent of DMSO vehicle control (NCK1; primary screen, 10 μM): 90.1%
- percent of DMSO vehicle control (CBLC; primary screen, 10 μM): 97.4±7.1%
- percent of DMSO vehicle control (STAT4): 106.6%
- percent of DMSO vehicle control (HSH2D; primary screen, 10 μM): 127.4%

Compound: NC(=O)CC[C@H](NC(=O)[C@@H]1CC[C@@H]2CCN(C(=O)CCCCCC#Cc3cccc4c3CN(C3CCC(=O)NC3=O)C4=O)C[C@H](NC(=O)c3cc4cc(C(F)(F)P(=O)(O)O)ccc4[nH]3)C(=O)N21)C(=O)NC(c1ccccc1)c1ccccc1 (some centres unmarked) [SD-36]
- remaining activity at 10 µM (SOCS6): 57.2 ± 3.4%
- remaining activity at 10 µM (PIK3R2(SH2dom.N-term.)): 132%
- percent of DMSO vehicle control at 10 µM (MIST; [2]): 104 ± 8.6%
- percent of DMSO vehicle control at 10 µM (CRKL; [2]): 119%
- percent of DMSO vehicle control at 10 µM (ABL2; [2]): 126%
- remaining activity at 10 µM (PTPN6(SH2dom.C-term.)): 108 ± 6.9%
- remaining activity at 10 µM (FES): 46.3 ± 7.5%
- percent of DMSO vehicle control at 10 µM (APS (SH2B2); [2]): 140 ± 6.1%
- remaining activity at 10 µM (SOCS2): 98.5 ± 5.4%
- remaining activity at 10 µM (NCK1): 106%
- percent of DMSO vehicle control at 10 µM (CBLC; [2]): 113 ± 4.5%
- Kd (STAT4): 120 ± 110 nM
- percent of DMSO vehicle control (STAT4): 1.1±0.2%
- percent of DMSO vehicle control at 10 µM (HSH2D; [2]): 72.7 ± 14.5%

Compound: CC(C)(C)[C@H](NC(=O)/C=C/c1ccc(OP(=O)(O)O)cc1)C(=O)N1CCC[C@H]1C(=O)N(c1ccccc1)c1ccc(I)cc1 [STAT6-IN-3]
- remaining activity at 10 µM (SOCS6; primary screen, 10 μM): 90.2 ± 12.1%
- remaining activity at 10 µM (PIK3R2(SH2dom.N-term.); primary screen, 10 μM): 88.4 ± 18.2%
- remaining activity at 10 µM (MIST; [1]): 102 ± 8.1%
- remaining activity at 10 µM (CRKL; [1]): 102 ± 19.9%
- remaining activity at 10 µM (ABL2; [1]): 108 ± 3.5%
- remaining activity at 10 µM (PTPN6(SH2dom.C-term.); primary screen, 10 μM): 136 ± 30.6%
- remaining activity at 10 µM (FES; primary screen, 10 μM): 82 ± 13.1%
- remaining activity at 10 µM (APS (SH2B2); [1]): 66.4 ± 17.9%
- Kd (SOCS2; dose-response, read-out: KD): 1010 ± 13 nM
- remaining activity at 10 µM (SOCS2; primary screen, 10 μM): 7.9 ± 50.6%
- remaining activity at 10 µM (NCK1; primary screen, 10 μM): 85.1 ± 10.2%
- Kd (CBLC; dose-response, read-out: KD): 2800 ± 520 nM
- remaining activity at 10 µM (CBLC; [1]): 34.7 ± 1.3%
- Kd (STAT4; read-out: KD): 520 ± 270 nM
- percent of DMSO vehicle control (STAT4): 0.2±0.3%
- Kd (HSH2D; dose-response, read-out: KD): 7600 ± 1600 nM
- remaining activity at 10 µM (HSH2D; [1]): 19.6 ± 29.7%
